Results from US9242995B2, “Isoxazolopyridine orexin receptor antagonists” (MERCK SHARP & DOHME CORP., priority 2011, dated 2016).
pKi: −log10 of the molar value.

Molecular target: human orexin-2 receptor (Homo sapiens (Human), UniProt O43614)
Experiment: radioligand binding assay, hOX2 Bind
Conditions: membranes prepared from CHO cells expressing the OX2 receptor; read-out: hOX2 Bind hKi
Description: The utility of the compounds in accordance with the present invention as orexin receptor OX1R and/or OX2R antagonists may be readily determined without undue experimentation by methodology well known in the art, including the “FLIPR Ca^2+ Flux Assay” (Okumura et al., Biochem. Biophys. Res. Comm. 280:976-981, 2001). In a typical experiment the OX1 and OX2 receptor antagonistic activity of the compounds of the present invention was determined in accordance with the following experimental method. For intracellular calcium measurements, Chinese hamster ovary (CHO) cells expressing the rat orexin-1 receptor or the human orexin-2 receptor, are grown in Iscove's modified DMEM containing 2 mM L-glutamine, […], 1% hypoxanthine-thymidine supplement, 100 U/ml penicillin, 100 μg/ml streptomycin and 10% heat-inactivated fetal calf serum (FCS). The cells are seeded at 20,000 cells/well into Becton-Dickinson black 384-well clear bottom sterile plates coated with poly-D-lysine. All reagents were from GIBCO-Invitrogen Corp. The seeded plates are incubated overnight at 37° C. and 5% CO2. […] Within the Fluorescent Imaging Plate Reader (FLIPR, Molecular Devices), test compounds are added to the plate in a volume of […] for 5 min and finally 25 μl of agonist is added. Fluorescence is measured for each well at 1 second intervals for 5 minutes and the height of each fluorescence peak is compared to the height of the fluorescence peak induced by 70 pM Ala-6,12 orexin-A with buffer in place of antagonist. […] Alternatively, compound potency can be assessed by a radioligand binding assay (described in Bergman et. al. Bioorg. Med. Chem. Lett. 2008, 18, 1425-1430) in which the inhibition constant (Ki) is determined in membranes prepared from CHO cells expressing either the OX1 or OX2 receptor. The intrinsic orexin receptor antagonist activity of a compound which may be used in the present invention may be determined by these assays. […]

Sequence of human orexin-2 receptor (O43614 whole entry): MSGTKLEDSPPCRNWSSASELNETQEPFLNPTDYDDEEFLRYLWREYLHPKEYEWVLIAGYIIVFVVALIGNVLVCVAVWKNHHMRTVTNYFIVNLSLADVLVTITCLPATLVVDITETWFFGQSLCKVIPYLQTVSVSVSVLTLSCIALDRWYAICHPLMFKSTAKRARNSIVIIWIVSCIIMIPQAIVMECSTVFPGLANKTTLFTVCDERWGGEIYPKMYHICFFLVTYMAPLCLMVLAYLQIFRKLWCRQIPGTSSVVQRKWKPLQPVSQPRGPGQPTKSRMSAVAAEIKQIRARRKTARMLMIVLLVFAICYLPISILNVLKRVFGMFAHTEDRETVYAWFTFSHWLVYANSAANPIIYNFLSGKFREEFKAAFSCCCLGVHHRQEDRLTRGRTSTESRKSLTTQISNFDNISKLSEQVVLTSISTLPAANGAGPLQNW

| SMILES | pKi |
| --- | --- |
| COc1ccc(CNC(=O)c2cc(-c3cncc(Br)c3)nc3onc(-c4ccccc4)c23)nc1OC [Example 1-8, 6-(5-bromopyridin-3-yl)-N-[(5,6-dimethoxypyridin-2-yl)methyl]-3-phenylisoxazolo[5,4-b] pyridine-4-carboxamide] | 8.42 |
| COc1ccc(CNC(=O)c2cc(-c3cncc(C)c3)nc3onc(-c4ccccc4)c23)cc1OC [Example 1-12, N-(3,4-dimethoxybenzyl)-6-(5-methylpyridin-3-yl)-3-phenylisoxazolo[5,4-b]pyridine-4-carboxamide] | 7.97 |
| COc1cc(C)c(CNC(=O)c2cc(-c3cncc(C)c3)nc3onc(-c4cccs4)c23)nc1OC [Example 1-21, N-[(5,6-dimethoxy-3-methylpyridin-2-yl)methyl]-6-(5-methylpyridin-3-yl)-3-(thiophen-2-yl)isoxazolo[5,4-b]pyridine-4-carboxamide] | 9.15 |
